Test results published in patent US20210267978A1, “NANOPARTICLE FORMULATIONS OF IKE AND METHODS OF USE THEREOF” (The Trustees of Columbia University in the City of New York, priority 2018, published 2021).

Test system: SUDHL6 xenograft tumor tissue
Experiment: TBARS measurement in mouse tumor tissue from efficacy study
Format: in vivo, NCG mice
Experimental: NCG mice, 6-weeks old, were injected with 10 million SUDHLO-6 cells subcutaneously. The mice were treated after the tumor size reached 100 mm^3. Mice were separated randomly into treatment groups and dosed with 23 mg/kg IKE, 40 mg/kg IKE, 23 mg/kg IKE PEG-PLGA nanoparticles (equal to 700 mg/kg PEG-PLGA), vehicle 1 (based on volume), and vehicle 2 (700 mg/kg PEG-PLGA) once daily by IP for 14 days. Tumor volume was measured daily with electronic caliper and calculated using the formula: 0.5×length×width^2. 3 h after the final dosage, mice were euthanized with CO2 and tumor tissue was dissected, weighed, divided into 4-6 segments, frozen, and stored at −80° C. Tumor volume change was analyzed in Prism using one-way ANOVA. Tumor tissues were analyzed as described in the RT-qPCR, immunofluorescence, TBARS, and lipidomics sections below.
10-25 mg tumor tissue was placed into a 1.5 mL Eppendorf microfuge tube, and the sample was placed on dry ice until use. 20 μL/mg ice cold RIPA buffer with cocktail protease inhibitor (Roche) was added. The tumor tissue was homogenized at speed 5 for 30 sec using Bead Ruptor 4. The sample was centrifuged at 4° C. at 1,600×g for 10 min. The sample was kept on ice and the supernatant used for analysis. […] TBARS was measured using a TBARS Assay Kit (Cayman 700870) following the manufacture's protocol.

SMILES: CC(C)Oc1ccc(C(=O)Cn2ccnc2)cc1-n1c(CN2CCN(C(=O)COc3ccc(Cl)cc3)CC2)nc2ccccc2c1=O [IKE, Imidazole ketone erastin]
- MDA increase (TBARS assay, MDA-TBA adducts' fluorescence) (23 mg/kg daily for 14 days): 1.4 fold
- MDA increase (TBARS assay, MDA-TBA adducts' fluorescence) (40 mg/kg daily for 14 days): 1.8 fold
